Data as given in PMC5218480 (PLoS ONE, 2017).

Test system: MV-4-11 cells
Test: Gene expression microarray analysis (Affymetrix PrimeView) and GSEA
Format: cell-based, human
Set-up: RFU PODN (11730768_x_at) / Fold change /veh PODN (11730768_x_at) / RFU LINC00158 (11744669_a_at) / Fold change /veh LINC00158 (11744669_a_at) / RFU DUSP10 (11751237_a_at) / Fold change /veh DUSP10 (11751237_a_at) / RFU ID3 (11757404_x_at) / Fold change /veh ID3 (11757404_x_at) / RFU PLEKHG5 (11737974_s_at) / Fold change /veh PLEKHG5 (11737974_s_at) / RFU LRRC4B (11730491_at) / Fold change /veh LRRC4B (11730491_at) / RFU GIMAP4 (11747438_a_at) / Fold change /veh GIMAP4 (11747438_a_at) / RFU KRT8 (11758183_x_at) / Fold change /veh KRT8 (11758183_x_at) / RFU CNN1 (11734310_a_at) / Fold change /veh CNN1 (11734310_a_at) / RFU VPS37D (11726825_at) / Fold change /veh VPS37D (11726825_at) / RFU C10orf10 (11716522_x_at) / Fold change /veh C10orf10 (11716522_x_at) / RFU KIR2DL2 /// KIR2DL4 /// KIR2DL5A /// KIR2DL5B /// KIR2DS1 /// KIR2DS2 /// KIR2DS3 /// KIR2DS4 /// KIR3DL3 /// KIR3DL3 /// KIR3DS1 (11738374_at) / Fold change /veh KIR2DL2 /// KIR2DL4 /// KIR2DL5A /// KIR2DL5B /// KIR2DS1 /// KIR2DS2 /// KIR2DS3 /// KIR2DS4 /// KIR3DL3 /// KIR3DL3 /// KIR3DS1 (11738374_at) / RFU C1QL1 (11718748_at) / Fold change /veh C1QL1 (11718748_at) / RFU TMPRSS4 (11747572_a_at) / Fold change /veh TMPRSS4 (11747572_a_at) / RFU HAMP (11756126_x_at) / Fold change /veh HAMP (11756126_x_at) / RFU RNFT2 (11725882_a_at) / Fold change /veh RNFT2 (11725882_a_at) / RFU NR4A2 (11747474_a_at) / Fold change /veh NR4A2 (11747474_a_at) / RFU ABCC12 (11746883_a_at) / Fold change /veh ABCC12 (11746883_a_at) / RFU TMEM136 (11760407_x_at) / Fold change /veh TMEM136 (11760407_x_at) / RFU CLDN22 /// WWC2 (11732394_at) / Fold change /veh CLDN22 /// WWC2 (11732394_at) / RFU HLA-DPB1 (11760878_x_at) / Fold change /veh HLA-DPB1 (11760878_x_at) / RFU SPINT1 (11716480_a_at) / Fold change /veh SPINT1 (11716480_a_at) / RFU GAP43 (11754022_s_at) / Fold change /veh GAP43 (11754022_s_at) / RFU A4GNT (11735810_at) / Fold change /veh A4GNT (11735810_at) / RFU PRB3 (11715151_x_at) / Fold change /veh PRB3 (11715151_x_at) / RFU TUBB4B (11761932_at) / Fold change /veh TUBB4B (11761932_at) / RFU CAPN14 (11732068_a_at) / Fold change /veh CAPN14 (11732068_a_at) / RFU TMCC2 (11721928_a_at) / Fold change /veh TMCC2 (11721928_a_at) / RFU IRGQ (11745062_a_at) / Fold change /veh IRGQ (11745062_a_at) / RFU FAM174B (11720279_a_at) / Fold change /veh FAM174B (11720279_a_at) / RFU TMPRSS4 (11748680_a_at) / Fold change /veh TMPRSS4 (11748680_a_at) / RFU FAM212B (11763350_a_at) / Fold change /veh FAM212B (11763350_a_at) / RFU PLEKHG5 (11743358_a_at) / Fold change /veh PLEKHG5 (11743358_a_at) / RFU ZSCAN30 (11745921_a_at) / Fold change /veh ZSCAN30 (11745921_a_at) / RFU CMKLR1 (11741424_a_at) / Fold change /veh CMKLR1 (11741424_a_at) / RFU LOC101060620 /// MAPK8IP1 (11723275_at) / Fold change /veh LOC101060620 /// MAPK8IP1 (11723275_at) / RFU SPTSSB (11747773_x_at) / Fold change /veh SPTSSB (11747773_x_at) / RFU PRSS12 (11739890_at) / Fold change /veh PRSS12 (11739890_at) / RFU BIN1 (11741810_x_at) / Fold change /veh BIN1 (11741810_x_at) / RFU WNT11 (11732464_a_at) / Fold change /veh WNT11 (11732464_a_at) / RFU C10orf10 (11716521_a_at) / Fold change /veh C10orf10 (11716521_a_at) / RFU C5orf56 (11738089_at) / Fold change /veh C5orf56 (11738089_at) / RFU CYB561 (11721691_x_at) / Fold change /veh CYB561 (11721691_x_at) / RFU ANKRD19P (11752326_a_at) / Fold change /veh ANKRD19P (11752326_a_at) / RFU OR2T12 /// OR2T33 /// OR2T8 (11738714_s_at) / Fold change /veh OR2T12 /// OR2T33 /// OR2T8 (11738714_s_at) / RFU VCAN (11748164_a_at) / Fold change /veh VCAN (11748164_a_at) / RFU JSRP1 (11732532_at) / Fold change /veh JSRP1 (11732532_at) / RFU KRTAP10-11 (11738290_x_at) / Fold change /veh KRTAP10-11 (11738290_x_at) / RFU MYO3A (11730013_a_at) / Fold change /veh MYO3A (11730013_a_at) / RFU EBF3 (11725865_a_at) / Fold change /veh EBF3 (11725865_a_at) / RFU CAMK2N1 (11719241_x_at) / Fold change /veh CAMK2N1 (11719241_x_at) / RFU C5orf56 (11738088_a_at) / Fold change /veh C5orf56 (11738088_a_at) / RFU OLFML3 (11715873_a_at) / Fold change /veh OLFML3 (11715873_a_at) / RFU LOC100653217 /// NTM (11731650_a_at) / Fold change /veh LOC100653217 /// NTM (11731650_a_at) / RFU MAPK11 (11762145_a_at) / Fold change /veh MAPK11 (11762145_a_at) / RFU FIZ1 (11724087_x_at) / Fold change /veh FIZ1 (11724087_x_at) / RFU OASL (11726364_x_at) / Fold change /veh OASL (11726364_x_at) / RFU SOX15 (11748057_x_at) / Fold change /veh SOX15 (11748057_x_at) / RFU CD79A (11719716_a_at) / Fold change /veh CD79A (11719716_a_at) / RFU HIST1H1D (11736915_at) / Fold change /veh HIST1H1D (11736915_at) / RFU CASKIN2 (11723855_a_at) / Fold change /veh CASKIN2 (11723855_a_at) / RFU LOC730098 (11760151_x_at) / Fold change /veh LOC730098 (11760151_x_at) / RFU OR4N2 (11742367_at) / Fold change /veh OR4N2 (11742367_at) / RFU PRRT2 (11749266_a_at) / Fold change /veh PRRT2 (11749266_a_at) / RFU SNX32 (11753110_a_at) / Fold change /veh SNX32 (11753110_a_at) / RFU CDHR5 (11726645_a_at) / Fold change /veh CDHR5 (11726645_a_at) / RFU RCAN1 (11760418_a_at) / Fold change /veh RCAN1 (11760418_a_at) / RFU FAM167A (11723789_a_at) / Fold change /veh FAM167A (11723789_a_at) / RFU FAM26E (11764081_at) / Fold change /veh FAM26E (11764081_at) / RFU ISYNA1 (11749810_s_at) / Fold change /veh ISYNA1 (11749810_s_at) / RFU ACY1 (11761880_at) / Fold change /veh ACY1 (11761880_at) / RFU 11764098_at / Fold change /veh 11764098_at / RFU SAMD14 (11745864_x_at) / Fold change /veh SAMD14 (11745864_x_at) / RFU NPB (11741838_a_at) / Fold change /veh NPB (11741838_a_at) / RFU TMPRSS6 (11731388_a_at) / Fold change /veh TMPRSS6 (11731388_a_at) / RFU KRTAP10-2 (11738614_at) / Fold change /veh KRTAP10-2 (11738614_at) / RFU ARHGAP8 /// PRR5-ARHGAP8 (11727945_x_at) / Fold change /veh ARHGAP8 /// PRR5-ARHGAP8 (11727945_x_at) / RFU KRTAP5-7 /// NADSYN1 (11734609_at) / Fold change /veh KRTAP5-7 /// NADSYN1 (11734609_at) / RFU RASL12 (11751679_a_at) / Fold change /veh RASL12 (11751679_a_at) / RFU CDKN2B (11736163_a_at) / Fold change /veh CDKN2B (11736163_a_at) / RFU PRF1 (11729649_at) / Fold change /veh PRF1 (11729649_at) / RFU, ZNF638 /// ZNF638-IT1 / Fold change vs veh, ZNF638 /// ZNF638-IT1 / RFU, PANK3 / Fold change vs veh, PANK3 / RFU, SH3YL1 / Fold change vs veh, SH3YL1 / RFU, ZEB2 / Fold change vs veh, ZEB2 / RFU, NRIP1 / Fold change vs veh, NRIP1 / RFU, PTTG1IP / Fold change vs veh, PTTG1IP / RFU, CAPN2 / Fold change vs veh, CAPN2 / RFU, MED14 / Fold change vs veh, MED14 / RFU, SNORA58 / Fold change vs veh, SNORA58 / RFU, C1orf63 / Fold change vs veh, C1orf63 / RFU, LRRFIP1 / Fold change vs veh, LRRFIP1 / RFU, NDUFAF7 / Fold change vs veh, NDUFAF7 / RFU, SLC12A2 / Fold change vs veh, SLC12A2 / RFU, IBTK / Fold change vs veh, IBTK / RFU, ESF1 / Fold change vs veh, ESF1 / Fold change vs veh, TMEM50B / RFU, TAOK1 / Fold change vs veh, TAOK1 / RFU, ACBD3 / Fold change vs veh, ACBD3 / RFU, TMA16 / Fold change vs veh, TMA16 / RFU, RWDD3 / Fold change vs veh, RWDD3 / RFU, BCAT1 / Fold change vs veh, BCAT1 / RFU, EDEM3 / Fold change vs veh, EDEM3 / RFU, TMEM33 / Fold change vs veh, TMEM33 / RFU, WDR75 / Fold change vs veh, WDR75 / RFU, AHCTF1 / Fold change vs veh, AHCTF1 / RFU, TFRC / Fold change vs veh, TFRC / RFU, ZDHHC17 / Fold change vs veh, ZDHHC17 / RFU, NOM1 / Fold change vs veh, NOM1 / RFU, ARL8B / Fold change vs veh, ARL8B / RFU, ZBTB11 / Fold change vs veh, ZBTB11 / RFU, TAMM41 / Fold change vs veh, TAMM41 / RFU, KIAA1704 /// LOC100996395 / Fold change vs veh, KIAA1704 /// LOC100996395 / RFU, ING1 / Fold change vs veh, ING1 / RFU, TRMT61B / Fold change vs veh, TRMT61B / RFU, FUBP3 / Fold change vs veh, FUBP3 / RFU, TP53 / Fold change vs veh, TP53 / RFU, TNKS2 / Fold change vs veh, TNKS2 / RFU, ZFP14 / Fold change vs veh, ZFP14 / RFU, ACTR2 / Fold change vs veh, ACTR2 / RFU, PPP3R1 / Fold change vs veh, PPP3R1 / RFU, PIK3R1 / Fold change vs veh, PIK3R1 / RFU, HNRNPA1 / Fold change vs veh, HNRNPA1 / RFU, RNF170 / Fold change vs veh, RNF170 / RFU, ZNF28 / Fold change vs veh, ZNF28 / RFU, RNGTT / Fold change vs veh, RNGTT / RFU, OGT / Fold change vs veh, OGT / RFU, BRD1 / Fold change vs veh, BRD1 / RFU, MARS / Fold change vs veh, MARS / RFU, ZNF655 / Fold change vs veh, ZNF655 / RFU, FAHD1 / Fold change vs veh, FAHD1 / RFU, BDP1 / Fold change vs veh, BDP1 / RFU, LRRCC1 / Fold change vs veh, LRRCC1 / RFU, ARID1A / Fold change vs veh, ARID1A / RFU, ZNF146 / Fold change vs veh, ZNF146 / RFU, ZNF330 / Fold change vs veh, ZNF330 / RFU, GPN3 / Fold change vs veh, GPN3 / RFU, C9orf123 / Fold change vs veh, C9orf123 / RFU, N4BP2L2 / Fold change vs veh, N4BP2L2 / RFU, ARFIP1 / Fold change vs veh, ARFIP1 / RFU, FAM179B / Fold change vs veh, FAM179B / RFU, BCL10 / Fold change vs veh, BCL10 / RFU, UHRF1BP1L / Fold change vs veh, UHRF1BP1L / RFU, BET1 / Fold change vs veh, BET1 / RFU, CNOT2 / Fold change vs veh, CNOT2 / RFU, ZNF268 / Fold change vs veh, ZNF268 / Fold change vs veh, ZNF507 / RFU, DGCR2 / Fold change vs veh, DGCR2 / RFU, WDSUB1 / Fold change vs veh, WDSUB1 / Fold change vs veh, HSP90B1 /// MIR3652 / RFU, ADSS / Fold change vs veh, ADSS / RFU, GK / Fold change vs veh, GK / RFU, ZNF148 / Fold change vs veh, ZNF148 / RFU, TAF9 / Fold change vs veh, TAF9 / RFU, SLC1A5 / Fold change vs veh, SLC1A5 / RFU, SLMO2 / Fold change vs veh, SLMO2 / RFU, ABCC4 / Fold change vs veh, ABCC4 / RFU, LOC101060439 /// RAP1B / Fold change vs veh, LOC101060439 /// RAP1B / RFU, RFX7 / Fold change vs veh, RFX7 / RFU, GTPBP10 / Fold change vs veh, GTPBP10 / RFU, CNEP1R1 / Fold change vs veh, CNEP1R1 / RFU, BIVM-ERCC5 /// ERCC5 / Fold change vs veh, BIVM-ERCC5 /// ERCC5 / RFU, ILF3 / Fold change vs veh, ILF3 / RFU 11762660_at / Fold change /veh 11762660_at / RFU VCAN (11757783_s_at) / Fold change /veh VCAN (11757783_s_at) / RFU DDX43 (11728927_at) / Fold change /veh DDX43 (11728927_at) / RFU KRT8 (11758188_x_at) / Fold change /veh KRT8 (11758188_x_at) / RFU NKD1 (11759106_at) / Fold change /veh NKD1 (11759106_at) / RFU SRD5A1 (11742802_a_at) / Fold change /veh SRD5A1 (11742802_a_at) / RFU TPSAB1 /// TPSB2 (11721975_s_at) / Fold change /veh TPSAB1 /// TPSB2 (11721975_s_at) / RFU GSTM3 (11746129_a_at) / Fold change /veh GSTM3 (11746129_a_at) / RFU IL23R (11737362_x_at) / Fold change /veh IL23R (11737362_x_at) / RFU TMEM51 (11727254_a_at) / Fold change /veh TMEM51 (11727254_a_at) / RFU PIWIL2 (11732686_x_at) / Fold change /veh PIWIL2 (11732686_x_at) / RFU ORM1 (11744905_x_at) / Fold change /veh ORM1 (11744905_x_at) / RFU CCDC152 (11743942_at) / Fold change /veh CCDC152 (11743942_at) / RFU ECM1 (11717891_a_at) / Fold change /veh ECM1 (11717891_a_at) / RFU IL23R (11748794_a_at) / Fold change /veh IL23R (11748794_a_at) / RFU TNFAIP8L3 (11732012_x_at) / Fold change /veh TNFAIP8L3 (11732012_x_at) / RFU MBOAT4 (11741988_at) / Fold change /veh MBOAT4 (11741988_at) / RFU 11764193_at / Fold change /veh 11764193_at / RFU TMEM53 (11763286_at) / Fold change /veh TMEM53 (11763286_at) / RFU MAGEB2 (11727129_at) / Fold change /veh MAGEB2 (11727129_at) / RFU TMEM200A (11744735_a_at) / Fold change /veh TMEM200A (11744735_a_at) / RFU CCDC152 (11751479_a_at) / Fold change /veh CCDC152 (11751479_a_at) / RFU FAM211A (11726209_a_at) / Fold change /veh FAM211A (11726209_a_at) / RFU RGS16 (11746705_a_at) / Fold change /veh RGS16 (11746705_a_at) / RFU VCAN (11755009_s_at) / Fold change /veh VCAN (11755009_s_at) / RFU RHOB (11743442_s_at) / Fold change /veh RHOB (11743442_s_at) / RFU RGS16 (11720943_a_at) / Fold change /veh RGS16 (11720943_a_at) / RFU RGS16 (11720944_at) / Fold change /veh RGS16 (11720944_at) / RFU, VPS4B / Fold change vs veh, VPS4B / RFU, CREB1 / Fold change vs veh, CREB1 / RFU, DNAJC13 / Fold change vs veh, DNAJC13 / RFU, GNAQ / Fold change vs veh, GNAQ / RFU, CDK5R1 / Fold change vs veh, CDK5R1 / RFU, ZRANB3 / Fold change vs veh, ZRANB3 / RFU, CUL4A / Fold change vs veh, CUL4A / RFU, CCNY / Fold change vs veh, CCNY / RFU, UFL1 / Fold change vs veh, UFL1 / RFU, COG3 / Fold change vs veh, COG3 / RFU, DIAPH2 / Fold change vs veh, DIAPH2 / RFU, SKA2 / Fold change vs veh, SKA2 / RFU, AFF3 / Fold change vs veh, AFF3 / RFU, LMF1 / Fold change vs veh, LMF1 / RFU, IPO11 / Fold change vs veh, IPO11 / RFU, DFFB / Fold change vs veh, DFFB / RFU, FOXP1 / Fold change vs veh, FOXP1 / RFU, CARD8 / Fold change vs veh, CARD8 / RFU, STRN3 / Fold change vs veh, STRN3 / RFU, ADK / Fold change vs veh, ADK / RFU, RASSF2 / Fold change vs veh, RASSF2 / RFU, WIPF1 / Fold change vs veh, WIPF1 / RFU, LARP1B / Fold change vs veh, LARP1B / RFU, RASA1 / Fold change vs veh, RASA1 / RFU, RB1 / Fold change vs veh, RB1 / RFU, PPFIA1 / Fold change vs veh, PPFIA1 / RFU, MAT2A / Fold change vs veh, MAT2A / RFU, CCT5 / Fold change vs veh, CCT5 / RFU, WDR92 / Fold change vs veh, WDR92 / RFU, CUX1 / Fold change vs veh, CUX1 / RFU, TTC7A / Fold change vs veh, TTC7A / RFU, TMEM135 / Fold change vs veh, TMEM135 / RFU, DEPTOR / Fold change vs veh, DEPTOR / RFU, CPM / Fold change vs veh, CPM / RFU, DNAJB6 / Fold change vs veh, DNAJB6 / RFU, CACNA2D3 / Fold change vs veh, CACNA2D3 / RFU, DTX4 / Fold change vs veh, DTX4 / RFU, TFCP2 / Fold change vs veh, TFCP2 / RFU, GMCL1 /// GMCL1P1 / Fold change vs veh, GMCL1 /// GMCL1P1 / RFU, AEBP2 / Fold change vs veh, AEBP2 / RFU, SNHG1 /// SNORD22 /// SNORD25 /// SNORD26 /// SNORD27 /// SNORD28 /// SNORD29 /// SNORD31 / Fold change vs veh, SNHG1 /// SNORD22 /// SNORD25 /// SNORD26 /// SNORD27 /// SNORD28 /// SNORD29 /// SNORD31 / Fold change (Aza/veh), C12orf56 (ProbeSet 11735607_a_at) / Fold change (ACY-1035/veh), C12orf56 (ProbeSet 11735607_a_at) / Fold change (Aza/veh), FGFR1OP (ProbeSet 11751329_s_at) / Fold change (ACY-1035/veh), FGFR1OP (ProbeSet 11751329_s_at) / Fold change (Aza/veh), VPS36 (ProbeSet 11739960_a_at) / Fold change (ACY-1035/veh), VPS36 (ProbeSet 11739960_a_at) / RFU SYPL1 (11715823_x_at) / Fold change /veh SYPL1 (11715823_x_at) / RFU IGFBP7 (11715501_s_at) / Fold change /veh IGFBP7 (11715501_s_at) / RFU REEP3 (11722064_at) / Fold change /veh REEP3 (11722064_at) / RFU IGLL1 (11728026_x_at) / Fold change /veh IGLL1 (11728026_x_at): dose or concentration left out as unconfirmed
Conditions: MV-4-11 cells, 48 hours

Nc1ncn([C@@H]2O[C@H](CO)[C@@H](O)[C@H]2O)c(=O)n1 [azacitidine]
Fold change /veh LRRC4B (11730491_at): 1.07
